Results: US20070231897A1, “Induction of Insulin Secreting Cell” (KYOTO UNIVERSITY, priority 2004, published 2007)

Legend:
pancreatic acinar cells [1] = test: Effect of growth factors on insulin-positive cell induction in main culture of pancreatic acinar cells; format: cell-based, mouse; details: day 7 of culture, EGF 20 ng/ml, HGF, FGF7 and FGF10 10 ng/ml, GLP-1 30 ng/ml; for proportion of insulin-positive cells: rank among growth factors (FIG. 8B)
Experimental: Eight-week old male mice (C57B1/6Cr Slc)(Japan SLC, Inc.: Hamamatsu, Japan) were anesthetized with 50 mg/kg of Nembtal (Dainippon Pharma Co., Ltd.: Osaka, Japan) and subjected to laparotomy. The choledoch duct was ligated near the position where it opens to the duodenum. Using a 27G winged needle (Terumo Corporation: Tokyo, Japan), 2-3 ml of Hank's buffer containing 0.05% collagenase P (Roche: Basel, Switzerland) and 10% fetal bovine serum was infused from the liver side. The pancreas, now swollen, was extracted and digested in 5 ml of Hank's buffer per pancreas for 18 minutes at 37° C. The digested pancreas then was made to pass through a 14G indwelling needle in both directions twice to disperse the pancreatic cells, which washed well with Hank's buffer containing 0.1% bovine serum albumin (Sigma: Saint Louis, Mo., USA). The pancreatic cells thus obtained were suspended in a mixed solution (solution A) consisting of 8.3% Ficoll 400 (Amersham Bioscience: Uppsala, Sweden) and 16.7% Conray 400 (Daiichi Pharmaceutical, Tokyo, Japan), and after a 87.5%-diluted solution of solution A and then a 50%-diluted solution of solution A were placed on it in the order, centrifuged (2,000 rpm, 10 min). Pancreatic acinar cells condensed in the spun down, lowest fraction were collected, and to them was added a sterilized 0.1 mg/ml solution of dithizone (1,5-diphenylthiocarbazone) (Nacalai Tesque, Inc.: Kyoto, Japan) and stained for 15 minutes at 37° C. in order to remove contaminating mature B-cells. Mature B-cells are stained red with dithizone, which is a chelating agent for zinc, for high concentration of insulin occurs in mature B-cells in the form of a hexamer via zinc (Latif et al., Transplantation, 45:827(1988)). By removing red-stained mature B-cells under a stereomicroscope, a fraction containing highly concentrated pancreatic acinar cells were obtained. […]

pancreatic acinar cells [2] = test: Correlation between EGF concentration and induction of colonies containing insulin-positive cells; format: cell-based, mouse; details: 0.5% fetal bovine serum (FIG. 9)
Experimental: The recovered cells were suspended in a nutrition medium (e.g., RPMI-1640) containing 0.5% fetal bovine serum (Sigma) and 20 ng/ml epidermal growth factor (EGF) (R&D Systems: Minneapolis, Minn., USA), and inoculated in cell culture dishes which were less adhesive for cells (Nalge Nunc: Rochester, N.Y., USA) and cultured in an incubator set at 37° C., 5% CO2. The pancreatic acinar cells, at early stages of culture, formed cell clusters having smooth boundaries consisting of congregated cells and, and kept themselves floating (FIG. 1A), and, at around day 3, adhere to the bottom of the dish and started to extend on it. After about 7 days, they formed relatively small cell aggregates (colonies) consisting of several dozen to several hundred cells (FIG. 1B). The cell density upon inoculation, which ranged from 1- to 10-fold dilution of that in pre-culture, had no influence on the form of the colonies observed.
In accordance with the method described in Example 1, except that the concentration of fetal bovine serum was fixed at 0.5% and EGF was used as the growth factor at a concentration of 0, 2, 20 or 200 ng/ml, main culture of pancreatic acinar cells were performed to assess the effect of EGF on induction of aimed cells (cells forming colonies containing insulin-positive cells as shown in FIG. 1B).

Substance	proportion of insulin-positive cells (pancreatic acinar cells [1])	total cell count (growth of the cells) (pancreatic acinar cells [1]; rank among growth factors (FIG. 8A))	effect on induction of aimed cells (cells forming colonies containing insulin-positive cells) (pancreatic acinar cells [2]; EGF 20 ng/ml)	effect on induction of aimed cells (cells forming colonies containing insulin-positive cells) (pancreatic acinar cells [2]; EGF 200 ng/ml)
hepatocyte growth factor [HGF]	this was followed by FGF10 and HGF	–	–	–
epidermal growth factor [EGF, epidermal growth factor (R&D Systems), growth factor added to the culture medium]	most effective	most effective	remarkable effect	remarkable effect
